Test system: SiHa cells
Test: Cell proliferation assay (MTS), SiHa
Assay type: cell-based, human
Conditions: 1-20 μM, 24 hours
Procedure: The effect of Br-ORM on CaSki and SiHa cells proliferation was performed using the MTS assay. Briefly, cells were seeded at a density of 5×10^3 cells per well in 96 well plate and allowed to stand overnight at 37° C. and 5% CO2 incubator. Next day, cells were treated with different concentrations of Br-ORM (1, 5, 10 and 20 μM). DMSO was used as a vehicle for the treatment of control cells. Twenty four hours post-treatment, 20 μL of MTS reagent (5 mg/mL) was added in each well and further incubated the plate for 2 hours in a CO2 incubator. Absorbance was taken after 2 hours at […] (SpectraMax M2 spectrophotometer, Molecular Devices, Sunnyvale, CA, USA). The experiment was performed in triplicates. Results were represented as percent viability with respect to the control group. […]
FIG. 13. […] Cell viability was assessed by MTS assay. […] Bar graphs indicating quantification of colony formation in CaSki (i), and SiHa (ii) cells of cervical cancer with respect to vehicle control. […] Briefly, cervical cancer cells were treated with Br-ORM (10 μM) for 24 hours and the apoptosis inducing effect of Br-ORM was analyzed by Annexin V staining. […] The equal loading of protein in each lane was determined by probing the blots with β-actin antibody (FIG. 13F). […] Br-ORM arrests cell cycle in G1/S phase as determined by flow cytometry. […]

With `COc1ccc2c(c1)OC(C)(C)C(c1ccc(Br)cc1)C2c1ccc(OCCN2CCCC2)cc1` (centres unmarked) [ORM-Br] the “cell viability / growth” value was “inhibits the growth” and the “cell viability / growth” value (listed as Br-ORM) was “dose dependently inhibited the cell viability”.
